Results from patent US20090317477A1, “COMBINATION OF DEHYDROEPIANDROSTERONE OR DEHYDROEPIANDROSTERONE-SULFATE WITH A GLUCOCORTICOSTEROID FOR TREATMENT OF ASTHMA, CHRONIC OBSTRUCTIVE PULMONARY DISEASE OR ALLERGIC RHINITIS” (priority 2004, published 2009).
Values joined by “and” are separate entries in the source; they are usually repeats but may differ in a detail not shown here. Identical values can stand only once.

Assays:
Intracellular adenosine = assay type: in vivo, Fischer 344 rats; conditions: rat
HT-29 SF cells [1] = assay: Reversal of DHEA effect on cell cycle; assay type: cell-based, human; conditions: 25 μM DHEA; increasing exposure time
HT-29 SF cells [2] = assay: DHEA effect on cell cycle (flow cytometry); assay type: cell-based, human
Method: Cells are plated at 10^5/60-mm dish in duplicate. […] Cultures are trypsinized following […] and fixed and stained using a modification of a procedure of Bauer et al., Cancer Res. 46, 3173-3178 (1986). Briefly, cells are collected by centrifugation and resuspended in cold phosphate-buffered saline. Cells are fixed in 70% ethanol, washed, and resuspended in phosphate-buffered saline.
After 24, 48, and 72 hours, cells are harvested, fixed in ethanol, and stained with propidium iodide, and the DNA content/cell is determined by flow cytometric analysis. The percentage of cells in G1, S, and G2M phases is calculated using the Cellfit cell cycle analysis program. S phase is marked by a quadrangle for clarity. Representative histograms from duplicate determinations are shown. The experiment is repeated three times.

HT-29 SF cells [3] = assay: DHEA effect on cell growth
Method: Cell cultures, HT-29 SF cells, which represent a subline of HY-29 cells (ATCC, Rockville, Md.) and are adapted for growth in completely defined serum-free PC-1 medium (Ventrex, Portland, Me.), are obtained. Stock cultures are maintained in this medium at 37° C. (in a humidified atmosphere containing 5% CO2).

[4] = Solid-state stability at 50° C. with and without lactose (DHEA formed, HPLC); assay type: physicochemical; conditions: dihydrate
Source text: These conditions are used to stress the formulation in order to predict its long-term stability results. […] The primary degradant is DHEA. […] The materials on accelerated storage become more cohesive with time as evidenced by clumping during sample weighing for chemical analysis. […] This is a considerable disadvantage since lactose is the most commonly used inhalation excipient for dry powder formulations. Continuing with the virtually anhydrous form would mean limiting formulations to neat powder or undertaking more comprehensive safety studies to use a novel excipient.

Solubility of DHEA-S = assay type: physicochemical; conditions: 20 mM Na^+; Ksp of 1316 mM^2 (15° C.)
Source text: Inhalation of pure water can produce a cough stimulus. […] The temperature effect is weaker at high NaCl concentrations.

[5] = system: Glucocorticoid, Testosterone, Estrogen ERα, Estrogen ERβ, Progesterone, Vitamin D3 receptors; assay: Radioligand binding assays, steroid receptor panel (statements in words)
[6] = Fine particle fraction, single-dose Acu-Breathe device into Andersen impactor; assay type: physicochemical; conditions: aerosol of dihydrate/lactose blend; Test 2; 60 L/min
Method: The single-dose Acu-Breathe device is used for evaluating DHEA-S-dihydrate. Approximately 10 mg of neat DHEA-S-dihydrate powder is filled and sealed into foil blisters. These blisters are actuated into the Andersen 8-stage cascade impactor at flow rates ranging from 30 to 75 L/min with a glass twin-impinger throat. Stages 1-5 of the Andersen impactor are rinsed together to obtain an estimate of the fine particle fraction. Pooling the drug collected from multiple stages into one assay make the method much more sensitive. […] This unique feature of DHEA-S-dihydrate has not been reported in any previous literature. […] Using a carrier with a larger particle size typically improves the aerosol properties of micronized drug substances.
Approximately 25 mg of this powder is filled and sealed in foil blisters and aerosolized using the single-dose device at 60 L/min. The aerosol results for this preliminary powder blend are satisfactory for a respiratory drug delivery system. […] This diameter is smaller than the median diameter measured for micronized DHEA-S-dihydrate by laser diffraction. Irregularly shaped particles can behave aerodynamically as smaller particles since their longest dimension tends to align with the air flow field. Therefore, it is common to see a difference between the two methods. […]

[7] = system: LPS-induced secretion of TNFα from PBMC; assay: LPS-induced secretion of TNFα from PBMC; assay type: cell-based, human
Method: Thereafter, 1 μg/ml LPS was added to induce the cytokine secretion and the mixture was incubated for 24 h at 37° C. For basal control measurements, LPS was omitted from the incubation medium. Following incubation, the samples were centrifuged at 250× g for 5 min at 4° C. and the supernatants were collected.
The amount of secreted TNF-α present in the supernatant was quantified using an EIA detection kit (R&D systems). The photometric measurements were made with a microplate reader (Ultra, Tecan).
The results are expressed as a percent inhibition of the control secretion induced by LPS in Table 16.

[8] = Nebulizer studies (Pari ProNeb Ultra, LC Plus); assay type: physicochemical; conditions: 0.12% NaCl
Method: The nebulizer is filled with 5 mL of solution and nebulization is continued until the output became visually insignificant (4½ to 5 min.). Nebulizer solutions are tested using a California Instruments AS-6 6-stage impactor with a USP throat. The impactor is run at 30 L/min for 8 s to collect a sample following one minute of nebulization time. At all other times during the experiment, the aerosol is drawn through the by-pass collector at approximately 33 L/min. The collection apparatus, nebulizer, and impactor are rinsed with mobile phase and assayed by HPLC. […] This volume is selected as the practical upper limit for use in a clinical study.

Glucocorticoid receptor = biological target: T1, Glucocorticoid receptor (Homo sapiens, UniProt P04150); assay: Radioligand binding assay, Glucocorticoid; conditions: 100 μM
T1 sequence (P04150 1-777): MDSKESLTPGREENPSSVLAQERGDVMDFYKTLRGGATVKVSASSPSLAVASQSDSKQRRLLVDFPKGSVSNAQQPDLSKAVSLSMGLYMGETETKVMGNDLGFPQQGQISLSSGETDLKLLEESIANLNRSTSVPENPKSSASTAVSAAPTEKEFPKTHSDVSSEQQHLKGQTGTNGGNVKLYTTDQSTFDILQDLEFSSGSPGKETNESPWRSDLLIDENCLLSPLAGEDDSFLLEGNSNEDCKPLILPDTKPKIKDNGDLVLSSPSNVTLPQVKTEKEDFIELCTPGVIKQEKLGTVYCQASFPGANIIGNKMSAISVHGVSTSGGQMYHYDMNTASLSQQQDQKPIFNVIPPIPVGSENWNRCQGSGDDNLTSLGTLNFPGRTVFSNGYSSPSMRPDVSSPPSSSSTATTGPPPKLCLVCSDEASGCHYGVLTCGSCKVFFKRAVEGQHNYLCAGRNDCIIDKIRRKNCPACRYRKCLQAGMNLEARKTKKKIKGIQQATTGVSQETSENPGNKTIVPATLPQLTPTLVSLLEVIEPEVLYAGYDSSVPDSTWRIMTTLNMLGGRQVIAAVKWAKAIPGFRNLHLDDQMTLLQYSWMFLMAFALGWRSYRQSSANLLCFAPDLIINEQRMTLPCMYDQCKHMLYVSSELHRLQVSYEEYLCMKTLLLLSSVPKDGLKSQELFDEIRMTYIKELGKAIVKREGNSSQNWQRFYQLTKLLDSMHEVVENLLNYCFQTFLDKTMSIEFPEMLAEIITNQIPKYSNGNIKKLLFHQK

[9] = Homo sapiens, PBMC, read-out: percent inhibition of LPS-induced TNFα secretion

Structure (SMILES): Nc1nc(=O)c2c([nH]1)NCC(CNc1ccc(C(=O)N[C@@H](CCC(=O)O)C(=O)O)cc1)N2C=O (mixture of isomers) [Folinic Acid]
- Intracellular adenosine, Brain (Intracellular adenosine; in vivo): 0.72 ± 0.09
- effect of coadministration of folinic acid on steroid-mediated adenosine depletion (Intracellular adenosine; with DHEA or methyltestosterone): completely abrogate steroid-mediated adenosine depletion

Structure (SMILES): C[C@]12CC[C@H](O)CC1=CC[C@@H]1[C@@H]2CC[C@]2(C)C(=O)CC[C@@H]12 [DHEA, 3β-hydroxyandrost-5-en-17-one]
- effect on proportion of cells in S phase (HT-29 SF cells [1]): progressively reduced the proportion of cells in S phase
- cell cycle distribution (HT-29 SF cells [2]; 200 μM DHEA): more rapid increase in the percentage of cells in G1 and a decreased proportion of cells in S phase after 24 hours
- cell cycle effect (HT-29 SF cells [2]; 25, 50, 200 μM, 24-72 hours): G1 block in HT-29 SF cells in a time-and dose-dependent manner
- exposure time after which cell number is reduced compared to controls (HT-29 SF cells [3]; 12.5 μM DHEA): 72 h
- exposure time after which cell number is reduced compared to controls (HT-29 SF cells [3]; 25 μM DHEA): 48 h
- exposure time after which cell number is reduced compared to controls (HT-29 SF cells [3]; 50 μM DHEA): 48 h
- exposure time after which cell number is reduced compared to controls (HT-29 SF cells [3]; 200 μM DHEA): 24 h
- inhibition of growth (HT-29 SF cells [3]; 12.5-200 μM, 24-72 hours): time- and dose-dependent inhibition of growth
- effect on adenosine across organs (Intracellular adenosine; daily for two weeks): multi-organ depletion of adenosine

Structure (SMILES): CC12CCC3C(CC=C4CC(OS(=O)(=O)[O-])CCC43C)C1CCC2=O.[Na+] (centres unmarked) [DHEA-S dihydrate]
- Percent DHEA formed ([4]; 50° C., 1 week): 0.216%
- Percent DHEA formed ([4]; 50° C., 3 weeks): 0.317%
- Percent DHEA formed ([4]; 50° C., 4 weeks): 0.374%
- Percent DHEA formed ([4]; Control, sealed, 25° C., 4 weeks): 0.218%
- Percent DHEA formed ([4]; Control, sealed, 25° C., first column (Time=0)): 0.213%

Structure (SMILES): C[C@]12CC[C@H](OS(=O)(=O)[O-])CC1=CC[C@@H]1[C@@H]2CC[C@]2(C)C(=O)CC[C@@H]12.[Na+] [DHEA-S, sodium dehydroepiandrostenone sulfate]
- calculated solubility of DHEA-S^− (Solubility of DHEA-S): 27.5 mM and 10.7 mg/mL
- binding to the steroid receptors [5]: lack of effect on ligand binding on the other four receptors
- median diameter of aerosol by cascade impaction [6]: ~2.5 μm
- percent inhibition of LPS-induced TNFα secretion ([7]; DHEAS 30 μM alone): −2%
- percent inhibition of LPS-induced TNFα secretion ([7]; DHEAS 100 μM alone): 32%
- highest solution concentration for a clinical trial formulation (no precipitate during nebulization) [8]: approximately 7.5 mg/mL
- binding to the glucocorticosteroid receptor (Glucocorticoid receptor): does not bind to the glucocorticosteroid receptor

Structure (SMILES): C[C@@H]1C[C@H]2[C@@H]3CCC4=CC(=O)C=C[C@]4(C)[C@@]3(F)[C@@H](O)C[C@]2(C)[C@@]1(O)C(=O)CO [Dexamethasone]
- inhibition at 0.001 µM [7, 9]: -3%
- inhibition at 0.01 µM [7, 9]: 4%
- inhibition at 0.1 µM [7, 9]: 36%
